Values quoted from earlier work in PMC11457607 (Oncoimmunology, 2024).

Experiments:
NETs = details: local irradiation, clinical trials
SSTR2 = details: cyclic peptide agonist; in words
SSTR5 = details: cyclic peptide agonist; in words
[1] = clinical diagnostic dye, i.v.

[^177Lu]Lu-DOTA-TATE
slowing progression of NETs (NETs): high specificity and efficacy in slowing the progression of NETs

DOTA-Tyr[3]-octreotate [DOTA-TATE]
affinity to SSTR2 (SSTR2): high affinity to SSTR2
affinity to SSTR5 (SSTR5): binds with a high affinity to SSTR2 and SSTR5

O=C1OC2(c3ccc(O)cc3Oc3cc(O)ccc32)c2ccccc21 [fluorescein]
safety of intravenous injection [1]: without reported overt safety concerns
